Experimental data as given in patent publication US11472843B2, “Malacidins and methods of use” (The Rockefeller University, priority 2017, dated 2022).
Converted amounts (≈) assume the structure as drawn. Like-named read-outs stand apart in the source and are kept apart here.

Columns and labels:
S. aureus NRS140 = test: MIC assay, S. aureus NRS140; type: cell-based, Staphylococcus aureus; details: Staphylococcus aureus NRS140; β-lactams, Erythromycin, Spectinomycin; read-out: MIC
Method: (§1) MIC assays were performed in duplicate in 96-well microtiter plates on the basis of the protocol recommended by the Clinical and Laboratory Standards Institute (Cockerill, 2012, Clinical and Laboratory Standards Institute). All presented data are the average of at least three independent assays. Stock solutions of malacidin or daptomycin (2 mg ml^−1 in H2O) were added to the first well in a row and serially diluted (twofold per transfer) across the microtiter plate. CaCl2 was supplemented to media at a final concentration of 15 mM and fetal bovine serum (ATCC) was added to media (1:10) to test the effect of serum. Overnight cultures of bacteria were diluted 5,000-fold, and 50 μl was used as an inoculum in each well. MIC values were determined by visual inspection after 18 h incubation (30° C., static growth). For the enhanced calcium titration experiments, standard MIC assays were performed with methicillin-resistant Staphylococcus aureus (MRSA) PFGE strain type USA300 in media supplemented with CaCl2 at: 25.0, 18.8, 14.1, 7.03, 3.52, 2.50, 1.76, 0.880, 0.440, 0.250 and 0 mM. To assess the effects of monovalent and divalent cations on malacidin activity, standard MIC assays were performed with MRSA USA300 in media supplemented with 15 mM CaCl2, MgCl2, MnCl2, ZnCl2, SrCl2, NaCl and KCl. To evaluate the effects of pulmonary surfactants on activity against a community-acquired pneumonia-causing pathogen, standard MIC assays were performed with Streptococcus pneumoniae TCH8431 in media supplemented with both 15 mM CaCl1 and Survanta (beractant) at a final concentration of 5, 1, 0.5, 0.25 or 0% (volume/volume (v/v) percent).

S. aureus NRS100 = test: MIC assay, S. aureus NRS100; type: cell-based, Staphylococcus aureus; details: Staphylococcus aureus NRS100; β-lactams, Tetracycline; read-out: MIC
Method: as §1

[1] = system: Streptococcus pneumoniae TCH8431; details: from Silverman et al., 2005; cited from earlier work
[2] = system: Candida albicans ATCC 1884; test: MIC assay, C. albicans; type: cell-based; details: Candida albicans ATCC 1884
Method: as §1

[3] = system: Bacillus subtilis 168 IAI; test: MIC assay, B. subtilis; type: cell-based; details: Bacillus subtilis 168 IAI; read-out: MIC
Method: as §1

S. aureus NRS108 = test: MIC assay, S. aureus NRS108; type: cell-based, Staphylococcus aureus; details: Staphylococcus aureus NRS108; β-lactams, Gentamicin, Kanamycin; read-out: MIC
Method: as §1

Escherichia coli BAS849 = test: MIC assay, E. coli BAS849; type: cell-based
Method: as §1, with “To evaluate the effects of pulmonary surfactants on activity against a community-acquired pneumonia-causing pathogen, standard MIC assays were performed with Streptococcus pneumoniae TCH8431 in media supplemented with both 15 mM CaCl1 and Survanta (beractant) at a final concentration of 5, 1, 0.5, 0.25 or 0% (volume/volume (v/v) percent).” left out

S. aureus NRS146 = test: MIC assay, S. aureus NRS146; type: cell-based, Staphylococcus aureus; details: NRS 146 / VISA; Staphylococcus aureus NRS146; β-lactams, Vancomycin (VISA); read-out: MIC
Method: as §1

[4] = system: Pseudomonas aeruginosa PAO1; test: MIC assay, P. aeruginosa; type: cell-based
Method: as §1

[5] = system: Streptococcus pneumoniae TCH8431; test: MIC assay, S. pneumoniae; type: cell-based; details: Streptococcus pneumoniae TCH8431; read-out: MIC
Method: as §1

E. faecium Com15 = test: MIC assay, E. faecium Com15; type: cell-based, Enterococcus faecium; details: Enterococcus faecium Com15
Method: as §1

Escherichia coli DH5α = test: MIC assay, E. coli DH5α; type: cell-based
Method: as §1

E. faecium VRE = test: MIC assay, E. faecium VRE; type: cell-based, Enterococcus faecium; details: Enterococcus faecium VRE; Vancomycin (VRE); read-out: MIC
Method: as §1

[6] = system: Acinetobacter baumannii ATCC 17978; test: MIC assay, A. baumannii; type: cell-based
Method: as §1

[7] = system: Cryptococcus neoformans ATCC 32045; test: MIC assay, C. neoformans; type: cell-based; details: Cryptococcus neoformans ATCC 32045
Method: as §1

[8] = system: Klebsiella pneumonia ATCC 10031; test: MIC assay, Klebsiella pneumonia; type: cell-based
Method: as §1

S. aureus USA300 = test: MIC assay, S. aureus USA300 (MRSA); type: cell-based, Staphylococcus aureus; details: Staphylococcus aureus USA300, β-lactams (Methicillin, Oxacillin, Penicillin)
Method: as §1

MRSA USA300 = test: Membrane leakage assay (SYTOX green); type: cell-based, Staphylococcus aureus; details: 20 μg ml^−1
Method: The effects of malacidin on membrane integrity was assessed using SYTOX green. In brief, single colonies of MRSA USA300 were grown in LB media with and without 15 mM CaCl2 to an OD600 nm of 0.35. Nine hundred microlitres of cells were mixed with 100 μL of 17 μM SYTOX green dye (Thermo Fisher). The resulting mixture was incubated for 5 min at 22° C., and then distributed to a microtiter plate at 50 μl per well. An initial reading of fluorescence pre-antibiotic addition was measured at excitation and emission wavelengths of 488 nm and 523 nm, respectively. Fifty microlitres of antibiotics was added to respective wells at a final concentration of 20 μg ml^−1. Measurements were immediately collected for 10 min. To assess the effects of malacidin on membrane depolarization, similar assays were set up using the membrane potential probe, DiBAC4 (bis-(1,3-dibutylbarbituric acid)trimethine oxonol). Single colonies of MRSA USA300 were grown in LB media with and without 15 mM CaCl2 to an OD600 nm of 0.35. Nine hundred microlitres of cells were mixed with 100 μl of 20 μg ml DiBAC4dye (Thermo Fisher). The resulting mixture was incubated for 5 min at 22° C., and then distributed to a microtiter plate at 50 μl per well. An initial reading of fluorescence pre-antibiotic addition was measured at excitation and emission wavelengths of 492 nm and 515 nm, respectively. Fifty microlitres of antibiotics was added to respective wells at a final concentration of 20 μg ml^−1. Measurements were immediately collected for 10 min. Representative examples from three technical replicates are shown.

[9] = system: Salmonella enterica IR 715; test: MIC assay, Salmonella enterica; type: cell-based
Method: as §1

S. aureus BAA-42 = test: MIC assay, S. aureus BAA-42; type: cell-based, Staphylococcus aureus; details: BAA42; Staphylococcus aureus BAA-42; β-lactams; read-out: MIC
Method: as §1

S. aureus COL = test: MIC assay, S. aureus COL; type: cell-based, Staphylococcus aureus; details: Staphylococcus aureus COL; β-lactams; read-out: MIC
Method: as §1

[10] = system: UDP-MurNAc-pentapeptide in MRSA USA300; test: UDP-MurNAc-pentapeptide accumulation assay; type: cell-based, Staphylococcus aureus; details: 10 μg ml^−1, 60 min, UPLC-MS
Method: The intracellular accumulation of the cell wall precursor UDP-MurNAc-pentapeptide after treatment of MRSA USA300 with malacidin was assessed as previously described (Schneider et al., […], Antimicrob Agents Ch 53:1610-18). In brief, single colonies of MRSA USA300 were grown in LB media with and without 15 mM CaCl2 to an OD600 nm of 0.6. […] of cells and medium were incubated with a final concentration of 130 μg ml^−1 chloramphenicol for 15 min at 37° C. Antibiotics to be assayed were added at 10 μg ml^−1 and incubated for 60 min at 37° C. Vancomycin, known to form a complex with lipid II, was used as a positive control. Cells were collected by centrifugation, and resuspended in 30 μl dH2O and incubated in boiling water for 15 min. The cell extract was then centrifuged at 14,000 g. Supernatant was analysed for UDP-linked cell wall precursors by a UPLC-MS system. Experiments were performed with biological replicates.

For `CCCCCCCCCC(=O)N[C@@H](Cc1c[nH]c2ccccc12)C(=O)N[C@H](CC(N)=O)C(=O)N[C@@H](CC(=O)O)C(=O)N[C@@H]1C(=O)NCC(=O)N[C@@H](CCCN)C(=O)N[C@@H](CC(=O)O)C(=O)N[C@H](C)C(=O)N[C@@H](CC(=O)O)C(=O)NCC(=O)N[C@H](CO)C(=O)N[C@@H]([C@H](C)CC(=O)O)C(=O)N[C@@H](CC(=O)c2ccccc2N)C(=O)O[C@@H]1C` [Daptomycin, daptomycin, reference compound], the MIC (S. aureus NRS140) is given as 0.2 to 0.8 µg/mL (≈ 0.123 to 0.494 µM), the MIC (S. aureus NRS100) is given as 0.2 to 0.8 µg/mL (≈ 0.123 to 0.494 µM) and the “Activity in the presence of pulmonary surfactants” value [1] is given as “loss of activity”. The MIC ([2]; ATCC1884, read-out: MIC) was > 100 µg/mL, the MIC [3] was 0.2 to 0.4 µg/mL (≈ 0.123 to 0.247 µM) and the MIC (S. aureus NRS108) was 0.2 to 0.8 µg/mL (≈ 0.123 to 0.494 µM). The MIC (Escherichia coli BAS849) was 50 to 100 µg/mL (≈ 30.9 to 61.7 µM), the MIC (S. aureus NRS146) was 0.2 to 0.8 µg/mL (≈ 0.123 to 0.494 µM) and the MIC ([4]; read-out: MIC) was > 100 µg/mL. The MIC [5] was 0.1 to 0.2 µg/mL (≈ 0.0617 to 0.123 µM), the MIC (E. faecium Com15; read-out: MIC) was 0.4 to 2 µg/mL (≈ 0.247 to 1.23 µM) and the MIC (Escherichia coli DH5α; read-out: MIC) was > 100 µg/mL. For the same compound, the MIC (E. faecium VRE) was 0.4 to 2 µg/mL (≈ 0.247 to 1.23 µM), the MIC ([6]; ATCC17978, range of at least three independent experiments, read-out: MIC) was > 100 µg/mL and the MIC ([7]; ATCC32045, read-out: MIC) was > 100 µg/mL. The MIC ([8]; Klebsiella pneumoniae, ATCC10031, read-out: MIC) was > 100 µg/mL, the MIC (S. aureus USA300; read-out: MIC) was 0.2 to 0.8 µg/mL (≈ 0.123 to 0.494 µM) and the “Membrane leakage (SYTOX green or DiBAC4)” value (MRSA USA300; absence of calcium supplementation) was “No membrane leakage”. For the same compound, the “Membrane leakage (SYTOX green fluorescence)” value (MRSA USA300; with calcium (15 mM CaCl2)) was “rapid increase in fluorescence”, the MIC ([9]; IR715, read-out: MIC) was > 100 µg/mL and the MIC (S. aureus BAA-42) was 0.2 to 0.8 µg/mL (≈ 0.123 to 0.494 µM). It also gave an MIC (S. aureus COL) of 0.2 to 0.8 µg/mL (≈ 0.123 to 0.494 µM).

For `CN[C@H](CC(C)C)C(=O)N[C@H]1C(=O)N[C@@H](CC(N)=O)C(=O)N[C@H]2C(=O)N[C@H]3C(=O)N[C@H](C(=O)N[C@H](C(=O)O)c4cc(O)cc(O)c4-c4cc3ccc4O)[C@H](O)c3ccc(c(Cl)c3)Oc3cc2cc(c3O[C@@H]2O[C@H](CO)[C@@H](O)[C@H](O)[C@H]2O[C@H]2C[C@](C)(N)[C@H](O)[C@H](C)O2)Oc2ccc(cc2Cl)[C@H]1O` [vancomycin, reference compound], the “Accumulation of cell wall intermediate UDP-MurNAc-pentapeptide” value [10] was “accumulation of the cell wall intermediate UDP-MurNAc-pentapeptide”.

In the case of malacidin B, the MIC [2] is reported as >100 µg/mL, the MIC [4] is reported as >100 µg/mL and the MIC (E. faecium Com15) is reported as 0.8 to 2.0 µg/mL. The MIC (Escherichia coli DH5α) was >100 µg/mL, the MIC ([6]; range of at least three independent experiments) was >100 µg/mL and the MIC [7] was >100 µg/mL. For the same compound, the MIC [8] was >100 µg/mL, the MIC (S. aureus USA300) was 0.4 to 0.8 µg/mL and the MIC [9] was >100 µg/mL.
